From patent US20080028486A1, “Aluminium Tolerant Barley” (COMMONWEALTH SCIENTIFIC AND INDUSTRIAL RESEARCH ORGANISATION, priority 2004, published 2008)

Experiments:
[1] = tested on: transgenic barley T0 lines 4, 5 and 6 expressing ALMT1; assay: Al tolerance assay: root elongation in hydroponic culture, ALMT1 transgenic barley; assay type: in vivo, Hordeum vulgare
Experimental: (§1) Plants in hydroponic culture were assessed for Al tolerance using a hydroponic solution described as follows, supplemented with a range of AlCl3 concentrations. The hydroponic solution was made with distilled or deionised water containing 500 μM KNO3, 500 μM CaCl2, 500 μM NH4NO3, 150 μM MgSO4, 100 μM KH2PO4, 2 μM Fe:EDTA, 11 μM H3BO3, 2 μM MnCl2, 0.35 μM ZnCl2 and 0.2 μM CuCl2 adjusted to pH 5.5. The Al screening solution was the same solution as above except it contained 10 μM KH2PO4 instead of 100 μM, 2 μM FeCl3 instead of Fe:EDTA and was adjusted to pH 4.3 instead of 5.5, and was supplemented with AlCl3 at the stated concentration. The plants were grown using these solutions at a temperature of 18-25° C., usually at 20° C.
(§2) Al tolerance was assessed by determining root elongation of plants grown in hydroponic culture in the continual presence of added Al. The three barley T0 lines that were transformed with ALMT1 and expressing the transgene in the roots were tested in a range of Al levels. […] The ALMT1 gene therefore provided a dramatic enhancement of Al tolerance on the barley plants, to a level that has not been seen previously.

[2] = tested on: control barley plants (wild type and vector only, cv Golden Promise); assay: Al tolerance assay: root elongation in hydroponic culture, control plants; assay type: in vivo, Hordeum vulgare
Experimental: as §1, §2

[3] = tested on: root apices of transgenic barley expressing ALMT1; assay: Malate efflux from excised root apices of transgenic barley expressing ALMT1; assay type: cell-based, Hordeum vulgare; conditions: for activation of malate efflux: 50 μM La or Er in basal solution
Experimental: FIG. 4—Properties of malate efflux from root apices of transgenic barley expressing ALMT1. • (A) Effect of Al concentration on malate efflux (nmoles/h/apex). Excised root apices from ALMT1 line 5 (solid circles) were exposed to Al treatments from 0 to 50 μM in basal solution for 1 h. Error bars show ±standard errors of the means (n=3). The solid squares show efflux from root apices of the control line transformed with the empty vector. • (B) Effects of niflumic acid (nif; 0 to 100 μM), La (50 μM), Er (50 μM) and basal solution (0.2 mM CaCl2 pH 4.3) on malate efflux from root apices of line 5. Excised root apices from line 5 were exposed to the various treatments in basal solution for 1 h. Error bars show ±standard errors of the means (n=3).
Malate efflux from root segments was assayed using a modification of methods described by Ryan et al. (1995a). Unless stated otherwise, 4 root apices 3 mm long were incubated with shaking in 1 ml of 0.2 mM CaCl2 (pH 4.3) for approximately 1 h. The apices were then rinsed with the CaCl2 solution three times and replaced with 1 ml of the same solution (control) or 1 ml of treatment solution (0.2 mM CaCl2 with added treatment at pH 4.3). After an incubation that typically lasted for 1 h, the solution was removed, dried and the residue re-suspended in 200 μl of buffer used for the spectrographic assay of malate (0.25 M glycine, 0.20 M hydrazine and 2.7 mM NAD adjusted to pH 9). A subsample (100 μl) was transferred to a micro-cuvette and the increase in absorbance at 340 nm measured 6 min after addition of 1 μl of malate dehydrogenase (5 mg/ml) was used to calculate the amount of malate by comparison to a standard curve.

[4] = tested on: root apices of transgenic barley expressing ALMT1; assay: K+ efflux from excised root apices of transgenic barley line 5; assay type: cell-based, Hordeum vulgare; conditions: line 5 excised apices, 50 μM Al, mean ±SE, n=4
Experimental: Al-activated malate efflux from root apices of transgenic barley expressing ALMT1 was accompanied by the efflux of K^+. Net K^+ effluxes from excised apices of line 5 were calculated by subtracting corresponding values obtained for the vector only control line resulting in an efflux of 0.4±0.3 nmoles K^+/h/apex in the absence of Al and an efflux of 5.2±1.0 nmoles K^+/h/apex in the presence of 50 μM Al (means ±SE; n=4).

## [Cl][Al]([Cl])[Cl] [AlCl3, aluminium chloride]
[1]; ALMT1 line 5, hydroponic culture, 20M AlCl3 as printed
  inhibition of root growth: did not show significant inhibition of root growth
[1]; ALMT1 transgenic plants, hydroponic culture, 2, 6 or 12 μM AlCl3
  inhibition of root growth: did not exhibit any significant inhibition of root growth
[2]; 2 μM AlCl3
  inhibition of root growth: 50%
[2]; 6 μM AlCl3
  inhibition of root growth: 85-90%
[3]; Al-activated efflux, transgenic barley
  rate of malate efflux from root apices: approx. 1 nmole/apex/h
[3]; line 5 root apices, Al 0 to 50 μM in basal solution (0.2 mM CaCl2 pH 4.3), 1 h
  added Al concentration up to which malate efflux increases before starting to level off: about 25 μM
[4]
  net K+ efflux (vector only control values subtracted): 5.2±1.0 nmoles K+/h/apex

## [La] [Lanthanum]
[3]; line 5 root apices, 1 h
  activation of malate efflux: ineffective in activating malate efflux

## [Er] [erbium]
[3]; line 5 root apices, 1 h
  activation of malate efflux: capable of eliciting malate efflux, albeit at a lower level than observed for Al

## O=C(O)c1cccnc1Nc1cccc(C(F)(F)F)c1 [niflumic acid]
[3]; line 5 root apices, niflumic acid 0 to 100 μM, basal solution, 1 h
  effect on malate efflux: inhibited
